Data taken from patent US20220054513A1, “COMBINATION COMPOSITIONS COMPRISING A BETA-LACTAMASE INHIBITOR” (VenatoRx Pharmaceuticals, Inc., priority 2018, published 2022).
Like-named read-outs stand apart in the source and are kept apart here.

Tested on: carbapenem resistant Enterobacteriaceae (CRE)
Test: MIC of cefiderocol with Compound 1 vs approved BL/BLI combinations, 120 CRE isolates
Protocol: A panel of 30 strains of characterized Enterobacteriaceae isolates produce Ambler class A, B, C, and D β-lactamase were used. […] IDM was prepared by adding 100 g of chelex (a chelating agent) to 1 L of sterile CAMBH and stirring for 2 hours. The chelex treated media was then filtered using a 0.2 μm filter and divalent Ca, Mg, and Zn are added back at relevant concentrations. The pH was adjusted to 7.2 using HCl and the media was filtered again to ensure sterility. This created a medium that was devoid of iron but retains appropriate concentration of other cations and was necessary for evaluating the activity of cefiderocol originating from its uptake by bacterial iron transporters. Bacteria strains were grown for 3-5 hours in CAMHB and IDM. Cefiderocol was added either to a microtiter plate in 2-fold serial dilutions in CAMHB and in parallel in IDM. […] Once the test articles were added the plates were inoculated according to CLSI broth microdilution method.
The challenge set of organisms consisted of a variety of Enterobacteriaceae species expressing IMP (n=30), NDM (30), VIM (15), KPC (n=30), and AmpC (n=15).

CC(C)(O/N=C(\C(=O)N[C@@H]1C(=O)N2C(C(=O)[O-])=C(C[N+]3(CCNC(=O)c4ccc(O)c(O)c4Cl)CCCC3)CS[C@H]12)c1csc(N)n1)C(=O)O [FDC, cefiderocol]
128 µg/mL: MIC (Escherichia coli, Escherichia coli 1424126 (NDM-5), IDM) | MIC (Escherichia coli, Escherichia coli 1438767 (NDM-5), IDM)
2 µg/mL: MIC (Enterobacter cloacae, Enterobacter cloacae 1488830 (IMP-14), IDM) | MIC (Enterobacter cloacae, Enterobacter cloacae 1590932 (VIM-4), IDM) | MIC (Escherichia coli, Escherichia coli 54321 (AmpC, CTX-M-15, TEM-1), IDM) | MIC (Escherichia coli, Escherichia coli 1371539 (NDM-6), IDM) | MIC (Escherichia coli, Escherichia coli 1468388 (IMP-59), IDM) | MIC (Escherichia coli, Escherichia coli SI-Vr059 (AmpC, CTX-M-32 and TEM-1), IDM) | MIC (Klebsiella aerogenes, Enterobacter aerogenes CDC-0161 (IMP-4, TEM-1B, OXA-1, SFO-1), IDM) | MIC (Klebsiella pneumoniae, Klebsiella pneumoniae 845904 (KPC-3), IDM) | MIC (Klebsiella pneumoniae, Klebsiella pneumoniae 847383 (KPC-2), IDM) | MIC (Klebsiella pneumoniae, Klebsiella pneumoniae 847387 (SHV-12, KPC-2), IDM) | MIC (Klebsiella pneumoniae, Klebsiella pneumoniae 848561 (SHV-11, CTX-M-3, KPC), IDM) | MIC (Klebsiella pneumoniae, Klebsiella pneumoniae 848790 (KPC-2), IDM) | MIC (Klebsiella pneumoniae, Klebsiella pneumoniae 1277372 (NDM-7), IDM) | MIC (Klebsiella pneumoniae, Klebsiella pneumoniae 1385622 (NDM-4), IDM) | MIC (Klebsiella pneumoniae, Klebsiella pneumoniae 1420892 (IMP-4), IDM) | MIC (Klebsiella pneumoniae, Klebsiella pneumoniae IHMA 511128 (IMP-26), IDM) | MIC (Klebsiella pneumoniae, Klebsiella pneumoniae IHMA 600482 (CTX-M-15, IMP-26), IDM) | MIC (Klebsiella pneumoniae, Klebsiella pneumoniae SI-128 (IMP-5), IDM)
0.059 µg/mL: MIC | MIC (Escherichia coli, Escherichia coli 3102 (AmpC, CTX-M-15, TEM-1), IDM) | MIC (Escherichia coli, Escherichia coli EC15522A (AmpC, CMY-2, TEM-1, CTX-M-15), IDM) | MIC (Escherichia coli, Escherichia coli SI-LP574 (AmpC, CTX-M-14, TEM-1), IDM) | MIC (Escherichia coli, Escherichia coli SI-P026 (AmpC, CMY-2, TEM-1), IDM) | MIC (Klebsiella aerogenes, Enterobacter aerogenes 847438 (CTX-M-2, KPC), IDM) | MIC (Klebsiella aerogenes, Enterobacter aerogenes IHMA 890184 (IMP), IDM) | MIC (Klebsiella oxytoca, Klebsiella oxytoca 1274060 (IMP-4), IDM) | MIC (Klebsiella oxytoca, Klebsiella oxytoca IHMA 871516 (IMP, KPC-2, SHV-12), IDM) | MIC (Klebsiella pneumoniae, Klebsiella pneumoniae IHMA 469384 (IMP-26, SHV-12), IDM)
0.03 µg/mL: MIC (Escherichia coli, Escherichia coli J53 (SHV-5, AmpC, TEM-1), IDM)
0.125 µg/mL: MIC (Enterobacter cloacae, Enterobacter cloacae 1256568 (VIM-23), IDM) | MIC (Enterobacter cloacae, Enterobacter cloacae 1703478 (IMP-4), IDM) | MIC (Enterobacter cloacae, Enterobacter cloacae IHMA 908146 (ACT-1, CTX-M-22, IMP), IDM) | MIC (Klebsiella pneumoniae, Klebsiella pneumoniae 847379 (CTX-M-2, KPC-2), IDM)
1 µg/mL: MIC50 | MIC (Escherichia coli, Escherichia coli 233 (AmpC, SHV-2, KPC-3, CTX-M-15 and TEM-1), IDM) | MIC (Escherichia coli, Escherichia coli 3073 (AmpC, CTX-M-3), IDM) | MIC (Klebsiella oxytoca, Klebsiella oxytoca 847537 (KPC-2), IDM) | MIC (Klebsiella oxytoca, Klebsiella oxytoca 847539 (CTX-M-2, KPC), IDM) | MIC (Klebsiella oxytoca, Klebsiella oxytoca 1622674 (VIM-44), IDM) | MIC (Klebsiella oxytoca, Klebsiella oxytoca IHMA 871515 (IMP, KPC-2, SHV-12), IDM) | MIC (Klebsiella oxytoca, Klebsiella oxytoca IHMA 871518 (IMP, KPC-2, SHV-12), IDM) | MIC (Klebsiella pneumoniae, Klebsiella pneumoniae 845661 (KPC-3), IDM) | MIC (Klebsiella pneumoniae, Klebsiella pneumoniae 845665 (KPC-3), IDM) | MIC (Klebsiella pneumoniae, Klebsiella pneumoniae 845667 (KPC-3), IDM) | MIC (Klebsiella pneumoniae, Klebsiella pneumoniae 847375 (SHV-12, KPC-2), IDM) | MIC (Klebsiella pneumoniae, Klebsiella pneumoniae 847384 (SHV-12, KPC-2), IDM) | MIC (Klebsiella pneumoniae, Klebsiella pneumoniae 848562 (SHV-11, KPC-3), IDM) | MIC (Klebsiella pneumoniae, Klebsiella pneumoniae 848566 (SHV-11, KPC-3), IDM) | MIC (Klebsiella pneumoniae, Klebsiella pneumoniae 848600 (KPC-3), IDM) | MIC (Klebsiella pneumoniae, Klebsiella pneumoniae 848842 (SHV-2A, KPC-2), IDM) | MIC (Klebsiella pneumoniae, Klebsiella pneumoniae 1212352 (NDM-6), IDM) | MIC (Klebsiella pneumoniae, Klebsiella pneumoniae 1371730 (NDM-6), IDM) | MIC (Klebsiella pneumoniae, Klebsiella pneumoniae 1459396 (NDM-7), IDM) | MIC (Klebsiella pneumoniae, Klebsiella pneumoniae 1591688 (IMP-4), IDM) | MIC (Klebsiella pneumoniae, Klebsiella pneumoniae 1591702 (IMP-4), IDM) | MIC (Klebsiella pneumoniae, Klebsiella pneumoniae IHMA 511121 (IMP-26), IDM)
4 µg/mL: MIC (Enterobacter cloacae, Enterobacter cloacae 1284044 (VIM-5), IDM) | MIC (Enterobacter cloacae, Enterobacter cloacae 1284065 (VIM-5), IDM) | MIC (Escherichia coli, Escherichia coli EC15521A (AmpC, CMY-2, TEM-1), IDM) | MIC (Klebsiella oxytoca, Klebsiella oxytoca 1417076 (IMP-8), IDM) | MIC (Klebsiella oxytoca, Klebsiella oxytoca 1417077 (IMP-8), IDM) | MIC (Klebsiella pneumoniae, Klebsiella pneumoniae 845662 (KPC-3), IDM) | MIC (Klebsiella pneumoniae, Klebsiella pneumoniae 847378 (SHV-12, KPC-2), IDM) | MIC (Klebsiella pneumoniae, Klebsiella pneumoniae 848791 (SHV-12, KPC-2), IDM) | MIC (Klebsiella pneumoniae, Klebsiella pneumoniae 848828 (SHV-12, KPC-2), IDM) | MIC (Klebsiella pneumoniae, Klebsiella pneumoniae 848844 (SHV-11, KPC-2), IDM) | MIC (Klebsiella pneumoniae, Klebsiella pneumoniae 1212142 (NDM-6), IDM) | MIC (Klebsiella pneumoniae, Klebsiella pneumoniae 1212258 (NDM-6), IDM) | MIC (Klebsiella pneumoniae, Klebsiella pneumoniae 1212290 (NDM-6), IDM) | MIC (Klebsiella pneumoniae, Klebsiella pneumoniae 1212347 (NDM-6), IDM) | MIC (Klebsiella pneumoniae, Klebsiella pneumoniae 1286102 (NDM-7), IDM) | MIC (Klebsiella pneumoniae, Klebsiella pneumoniae 1286206 (NDM-7), IDM) | MIC (Klebsiella pneumoniae, Klebsiella pneumoniae 1371650 (NDM-6), IDM) | MIC (Klebsiella pneumoniae, Klebsiella pneumoniae 1379123 (NDM-4), IDM) | MIC (Klebsiella pneumoniae, Klebsiella pneumoniae 1385586 (NDM-4), IDM) | MIC (Klebsiella pneumoniae, Klebsiella pneumoniae 1607267 (IMP-4), IDM) | MIC (Klebsiella pneumoniae, Klebsiella pneumoniae IHMA 511163 (IMP-26), IDM)
64 µg/mL: MIC (Enterobacter cloacae, Enterobacter cloacae 1207515 (NDM-6), IDM)
8 µg/mL: MIC90 | MIC (Enterobacter cloacae, Enterobacter cloacae 1284042 (VIM-5), IDM) | MIC (Escherichia coli, Escherichia coli 1266865 (NDM-5), IDM) | MIC (Klebsiella pneumoniae, Klebsiella pneumoniae 1369220 (NDM-6), IDM) | MIC (Klebsiella pneumoniae, Klebsiella pneumoniae 1369306 (NDM-6), IDM) | MIC (Klebsiella pneumoniae, Klebsiella pneumoniae 1385577 (NDM-4), IDM) | MIC (Klebsiella pneumoniae, Klebsiella pneumoniae 1455463 (NDM-4), IDM) | MIC (Klebsiella pneumoniae, Klebsiella pneumoniae 1459398 (NDM-7), IDM)
32 µg/mL: MIC (Enterobacter cloacae, Enterobacter cloacae 1284066 (VIM-5), IDM)
0.5 µg/mL: MIC (Escherichia coli, Escherichia coli 128 (AmpC, SHV-12, TOHO-2, TEM-1), IDM) | MIC (Escherichia coli, Escherichia coli 469 (AmpC, SHV-12, TEM-1), IDM) | MIC (Escherichia coli, Escherichia coli 786978 (KPC-2), IDM) | MIC (Escherichia coli, Escherichia coli 1275629 (VIM-23), IDM) | MIC (Escherichia coli, Escherichia coli 1275635 (VIM-23), IDM) | MIC (Escherichia coli, Escherichia coli SI-LP505 (AmpC, CTX-M-14, TEM-1), IDM) | MIC (Klebsiella aerogenes, Enterobacter aerogenes IHMA 846505 (CMY-2, IMP), IDM) | MIC (Klebsiella pneumoniae, Klebsiella pneumoniae 847204 (KPC-2), IDM) | MIC (Klebsiella pneumoniae, Klebsiella pneumoniae 847747 (CTX-M-2, KPC), IDM) | MIC (Klebsiella pneumoniae, Klebsiella pneumoniae 848563 (KPC-3), IDM) | MIC (Klebsiella pneumoniae, Klebsiella pneumoniae 848788 (KPC-2), IDM) | MIC (Klebsiella pneumoniae, Klebsiella pneumoniae 848832 (KPC-2), IDM) | MIC (Klebsiella pneumoniae, Klebsiella pneumoniae 890066 (SHV-33; TEM-33; CTX-M-15; IMP-1), IDM) | MIC (Klebsiella pneumoniae, Klebsiella pneumoniae 1251598 (VIM-26), IDM) | MIC (Klebsiella pneumoniae, Klebsiella pneumoniae 1251599 (VIM-26), IDM) | MIC (Klebsiella pneumoniae, Klebsiella pneumoniae 1277416 (IMP-26), IDM) | MIC (Klebsiella pneumoniae, Klebsiella pneumoniae 1455545 (NDM-4), IDM) | MIC (Klebsiella pneumoniae, Klebsiella pneumoniae 1621162 (VIM-12), IDM) | MIC (Klebsiella pneumoniae, Klebsiella pneumoniae CDC-0080 (IMP-4, TEM-1B, OKP-B-2, OXA-1, SFO-1), IDM)
0.25 µg/mL: MIC (Enterobacter cloacae, Enterobacter cloacae 1490669 (IMP-4), IDM) | MIC (Escherichia coli, Escherichia coli 64167 (AmpC, TEM-1, GES-5), IDM) | MIC (Escherichia coli, Escherichia coli CH1 (AmpC, TEM-1, CTX-M-15, SHV-5, SHV-1), IDM) | MIC (Klebsiella oxytoca, Klebsiella oxytoca 1585615 (IMP-4), IDM) | MIC (Klebsiella pneumoniae, Klebsiella pneumoniae 845670 (KPC-3), IDM) | MIC (Klebsiella pneumoniae, Klebsiella pneumoniae 1251600 (VIM-26), IDM) | MIC (Klebsiella pneumoniae, Klebsiella pneumoniae 1251604 (VIM-26), IDM) | MIC (Klebsiella pneumoniae, Klebsiella pneumoniae 1610707 (VIM-24), IDM) | MIC (Klebsiella pneumoniae, Klebsiella pneumoniae CDC-0034 (IMP-4, TEM-1B, SHV-11), IDM)
16 µg/mL: MIC (Enterobacter cloacae, Enterobacter cloacae 1212159 (NDM-6), IDM) | MIC (Enterobacter cloacae, Enterobacter cloacae 1212160 (NDM-6), IDM) | MIC (Enterobacter cloacae, Enterobacter cloacae 1455568 (NDM-4), IDM) | MIC (Escherichia coli, Escherichia coli 1438691 (NDM-5), IDM) | MIC (Klebsiella pneumoniae, Klebsiella pneumoniae 1369251 (NDM-6), IDM)
